Measurements taken from patent US20150011751A1, “NOVEL TRIAZINE DERIVATIVE” (CARNA BIOSCIENCES, INC., priority 2012, published 2015).

The compounds below were run against Dephosphorylated BTK (Homo sapiens, UniProt Q06187) (assay: Test of activity inhibition against dephosphorylated BTK (mobility shift assay)).
Chain of Dephosphorylated BTK (Q06187 whole entry): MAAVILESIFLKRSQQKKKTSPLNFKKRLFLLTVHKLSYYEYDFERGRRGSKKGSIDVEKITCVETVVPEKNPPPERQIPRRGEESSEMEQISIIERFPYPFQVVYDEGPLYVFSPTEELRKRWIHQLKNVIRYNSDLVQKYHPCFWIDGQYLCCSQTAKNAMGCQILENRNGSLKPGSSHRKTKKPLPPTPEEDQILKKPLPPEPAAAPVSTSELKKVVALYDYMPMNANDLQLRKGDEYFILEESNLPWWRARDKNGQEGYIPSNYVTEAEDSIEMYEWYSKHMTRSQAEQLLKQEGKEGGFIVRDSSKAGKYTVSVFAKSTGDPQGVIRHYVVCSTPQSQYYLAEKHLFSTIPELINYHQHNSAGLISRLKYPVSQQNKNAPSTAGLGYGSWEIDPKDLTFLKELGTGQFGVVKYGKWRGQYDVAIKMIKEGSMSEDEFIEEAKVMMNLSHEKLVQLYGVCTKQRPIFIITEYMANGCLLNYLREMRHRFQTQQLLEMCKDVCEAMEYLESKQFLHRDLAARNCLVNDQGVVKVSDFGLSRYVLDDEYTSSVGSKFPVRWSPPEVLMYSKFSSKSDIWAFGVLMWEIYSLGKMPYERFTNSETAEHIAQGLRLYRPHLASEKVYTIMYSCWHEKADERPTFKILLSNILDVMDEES
Description: Kinase activity was measured by a mobility shift assay (MSA) method using QuickScout Screening Assist (trademark) MSA (commercially available kit, manufactured by Carna Biosciences, Inc.). FITC-labeled SRCtide peptide supplied with the kit was used as a substrate of a kinase reaction.
IC50 value was calculated by regression analysis of the inhibition ratio and the test compound concentration (logarithm).
Dephosphorylated BTK was obtained by adding a A protein phosphatase (Code No. P0753S, manufactured by New England BioLabs Inc.) and MnCl2 to a biotinylated BTK protein BTN-BTK (manufactured by Carna Biosciences, Inc.) enzyme solution so as to adjust the concentrations to 10 U/μg and 2 mM, respectively, reacting the mixture at 4° C. overnight, removing the A protein phosphatase through anti-[sequence]-tag antibody agarose gel chromatography, and performing buffer exchange using 10DG Desalting Column.

| IC50 | SMILES |
| --- | --- |
| 1800 pM | Nc1nc(Nc2ccc(N3CCOCC3)cc2)nc(-c2cccc(NC(=O)c3ccc(C4CC4)cc3F)c2CO)n1 [Example 145, N-(3-{4-Amino-6-[(4-morpholinophenyl)amino]-1,3,5-triazin-2-yl}-2-(hydroxymethyl)phe-nyl)-4-cyclopropyl-2-fluorobenzamide] |
| 400 pM | CN1CCN(c2ccc(Nc3nc(N)nc(-c4cccc(NC(=O)c5ccc(C(C)(C)C)cc5)c4CO)n3)cc2)CC1 [Example 146, N-[3-(4-Amino-6-{[4-(4-methylpiperazin-1-yl)phenyl]amino}-1,3,5-triazin-2-yl)-2-(hy-droxymethyl)phenyl]-4-(tert-butyl)benzamide] |
| 300 pM | Nc1nc(Nc2ccc(N3CCNCC3)cc2)nc(-c2cccc(NC(=O)c3cc4c(s3)CCCC4)c2CO)n1 [Example 147, N-[3-(4-Amino-6-{[4-(piperazin-1-yl)phenyl]amino}-1,3,5-triazin-2-yl)-2-(hydroxymeth-yl)phenyl]-4,5,6,7-tetra-hydrobenzo[b]thio-phene-2-carboxamide] |
| 800 pM | CC(C)(C)c1ccc(C(=O)Nc2cccc(-c3nc(N)nc(Nc4ccc(CC#N)cc4)n3)c2CO)cc1 [Example 148, N-[3-(4-Amino-6-{[4-(cyano-methyl)phenyl]ami-no}-1,3,5-triazin-2-yl)-2-(hydroxymethyl)phenyl]-4-(tert-butyl) benzamide] |
| 500 pM | CC(C)(C)c1ccc(C(=O)Nc2cccc(-c3nc(N)nc(Nc4ccc(C(N)=O)cc4)n3)c2CO)cc1 [Example 149, N-(3-{4-Amino-6-[(4-carbamoylphenyl)amino]-1,3,5-triazin-2-yl}-2-(hydroxymethyl)phe-nyl)-4-(tert-butyl) benzamide] |
| 800 pM | CC(C)(C)c1ccc(C(=O)Nc2cccc(-c3nc(N)nc(Nc4ccc(OCCn5cccc5)cc4)n3)c2CO)cc1 [Example 150, N-{3-[4-({4-[2-(1H-Pyr-rol-1-yl)ethoxy]phe-nyl}amino)-6-amino-1,3,5-triazin-2-yl]-2-(hy-droxymethyl)phenyl}-4-(tert-butyl)benzamide] |
| 1300 pM | CC(C)(C)c1ccc(C(=O)Nc2cccc(-c3nc(N)nc(Nc4ccc(OCCOCCO)cc4)n3)c2CO)cc1 [Example 151, N-{3-[4-Amino-6-({4-[2-(2-hydroxyethoxy)eth-oxy]phenyl}amino)-1,3,5-triazin-2-yl]-2-(hy-droxymethyl)phenyl}-4-(tert-butyl)benzamide] |
| 1200 pM | CC(C)(C)c1ccc(C(=O)Nc2cccc(-c3nc(N)nc(Nc4ccc(OCCN5CCCC5)cc4)n3)c2CO)cc1 [Example 152, N-{3-[4-Amino-6-({4-[2-(pyrrolidin-1-yl)eth-oxy]phenyl}amino)-1,3,5-triazin-2-yl]-2-(hy-droxymethyl)phenyl}-4-(tert-butyl)benzamide] |
| 4900 pM | CC(C)(C)c1ccc(C(=O)Nc2cccc(-c3nc(N)nc(Nc4cccc(C(=O)O)c4)n3)c2CO)cc1 [Example 153, 3-[(4-Amino-6-{3-[4-(tert-butyl)benzamido]-2-(hydroxymethyl)phe-nyl}-1,3,5-triazin-2-yl)amino]benzoic acid] |
| 900 pM | CC(C)(C)c1ccc(C(=O)Nc2cccc(-c3nc(N)nc(Nc4ccc5c(c4)OCC(=O)N5)n3)c2CO)cc1 [Example 154, N-(3-{4-Amino-6-[(3-oxo-3,4-dihydro-2H-ben-zo[b][1,4]oxazin-7-yl)amino]-1,3,5-triazin-2-yl}-2-(hydroxymeth-yl)benzyl)-4-(tert-bu-tyl)benzamide] |
| 800 pM | CC(C)(C)c1ccc(C(=O)Nc2cccc(-c3nc(N)nc(Nc4ccc5c(c4)ncn5CCCO)n3)c2CO)cc1 [Example 155, N-[3-(4-Amino-6-{[1-(3-hydroxypropyl)-1H-benzo[d]imidazol-5-yl]amino}-1,3,5-triazin-2-yl)-2-(hydroxymeth-yl)phenyl]-4-(tert-butyl)benzamide] |
| 500 pM | CC(C)(C)c1ccc(C(=O)Nc2cccc(-c3nc(N)nc(Nc4ccc(N5CCOC5=O)cc4)n3)c2CO)cc1 [Example 156, N-[3-(4-Amino-6-{[4-(2-oxooxazolidin-3-yl)phenyl]amino}-1,3,5-tri-azin-2-yl)-2-(hydroxy-methyl)phenyl]-4-(tert-butyl)benzamide] |
| 5900 pM | CCN(CC)CCOc1ccc(Nc2nc(N)nc(-c3cccc(NC(=O)c4ccc(C(C)(C)C)cc4)c3CO)n2)cc1 [Example 159, N-{3-[4-Amino-6-({4-[2-(diethylamino)ethoxy]phenyl}amino)-1,3,5-triazin-2-yl]-2-(hy-droxymethyl)phenyl}-4-(tert-butyl)benzamide] |
| 800 pM | CC(C)(C)c1ccc(C(=O)Nc2cccc(-c3nc(N)nc(Nc4ccc(Cn5cccn5)cc4)n3)c2CO)cc1 [Example 160, N-{3-[4-({4-[(1H-Pyra-zol-1-yl)methyl]phenyl}amino)-6-amino-1,3,5-triazin-2-yl]-2-(hy-droxymethyl)phenyl}-4-(tert-butyl)benzamide] |
| 1100 pM | CC(C)(C)c1ccc(C(=O)Nc2cccc(-c3nc(N)nc(Nc4cccc(Cn5cccn5)c4)n3)c2CO)cc1 [Example 161, N-{3-[4-({3-[(1H-Pyra-zol-1-yl)methyl]phenyl}amino)-6-amino-1,3,5-triazin-2-yl]-2-(hy-droxymethyl)phenyl}-4-(tert-butyl)benzamide] |
| 500 pM | CC(C)(C)c1ccc(C(=O)Nc2cccc(-c3nc(N)nc(Nc4cccc(Cn5cncn5)c4)n3)c2CO)cc1 [Example 162, N-{3-[4-({3-[(1H-1,2,4-Triazol-1-yl)methyl]phenyl}amino)-6-amino-1,3,5-triazin-2-yl]-2-(hydroxymethyl)phe-nyl}-4-(tert-butyl) benzamide] |
| 1000 pM | CC(C)(C)c1ccc(C(=O)Nc2cccc(-c3nc(N)nc(Nc4cccc(CN5CCOCC5)c4)n3)c2CO)cc1 [Example 163, N-[3-(4-Amino-6-{[3-(morpholinomethyl)phe-nyl]amino}-1,3,5-triazin-2-yl)-2-(hydroxymeth-yl)phenyl]-4-(tert-butyl)benzamide] |
| 500 pM | CC(C)(C)c1ccc(C(=O)Nc2cccc(-c3nc(N)nc(Nc4ccc(Cn5cncn5)cc4)n3)c2CO)cc1 [Example 164, N-{3-[4-({4-[(1H-1,2,4-Triazol-1-yl)methyl]phenyl}amino)-6-amino-1,3,5-triazin-2-yl]-2-(hydroxymethyl)phe-nyl}-4-(tert-butyl) benzamide] |
| 700 pM | CC(C)(C)c1ccc(C(=O)Nc2cccc(-c3nc(N)nc(Nc4cn[nH]c4)n3)c2CO)cc1 [Example 165, N-(3-{4-[(1H-Pyrazol-4-yl)amino]-6-amino-1,3,5-triazin-2-yl}-2-(hydroxymethyl)phenyl)-4-(tert-butyl)benzamide] |
| 1000 pM | CN(C)CCOc1ccc(Nc2nc(N)nc(-c3cccc(NC(=O)c4ccc(C(C)(C)C)cc4)c3CO)n2)cc1 [Example 166, N-{3-[4-Amino-6-({4-[2-(dimethylamino)eth-oxy]phenyl}amino)-1,3,5-triazin-2-yl]-2-(hy-droxymethyl)phenyl}-4-(tert-butyl)benzamide] |
| 1600 pM | CC(C)(C)c1ccc(C(=O)Nc2cccc(-c3nc(N)nc(Nc4ccc(N5CCNC5=O)cc4)n3)c2CO)cc1 [Example 167, N-[3-(4-Amino-6-{[4-(2-oxoimidazolidin-1-yl)phenyl]amino}-1,3,5-triazin-2-yl)-2-(hy-droxymethyl)phenyl]-4-(tert-butyl)benzamide] |
| 17600 pM | Nc1nc(Nc2ccc(N3CCOCC3)cc2)nc(-c2cccc(NC(=O)c3ccc(C(F)(F)F)cc3)c2CO)n1 [Example 168, N-(3-{4-Amino-6-[(4-morpholinophenyl)amino]-1,3,5-triazin-2-yl}-2-(hydroxymethyl)phe-nyl)-4-(trifluorometh-yl)benzamide] |
| 26000 pM | Nc1nc(Nc2ccc(N3CCOCC3)cc2)nc(-c2cccc(NC(=O)c3ccc4c(c3)CCC4)c2CO)n1 [Example 171, N-(3-{4-Amino-6-[(4-morpholinophenyl)amino]-1,3,5-triazin-2-yl}-2-(hydroxymethyl)phe-nyl)-2,3-dihydro-1H-indene-5-carboxamide] |
| 600 pM | Cc1nccn1-c1ccc(Nc2nc(N)nc(-c3cccc(NC(=O)c4ccc(C(C)(C)C)cc4)c3CO)n2)cc1 [Example 172, N-[3-(4-Amino-6-{[4-(2-methyl-1H-imidazol-1-yl)phenyl]amino}-1,3,5-triazin-2-yl)-2-(hy-droxymethyl)phenyl]-4-(tert-butyl)benzamide] |
| 600 pM | CC(C)(C)c1ccc(C(=O)Nc2cccc(-c3nc(N)nc(Nc4ccc(Cn5ccccc5=O)cc4)n3)c2CO)cc1 [Example 173, N-{3-[4-Amino-6-({4-[(2-oxopyridin-1(2H)-yl)methyl]phenyl}amino)-1,3,5-triazin-2-yl]-2-(hydroxymethyl)phe-nyl}-4-(tert-butyl) benzamide] |
| 1500 pM | CC(C)(C)c1ccc(C(=O)Nc2cccc(-c3nc(N)nc(Nc4ccc(N5CCOCC5)nc4)n3)c2CO)cc1 [Example 174, N-(3-{4-Amino-6-[(6-morpholinopyridin-3-yl)amino]-1,3,5-triazin-2-yl}-2-(hydroxymeth-yl)phenyl)-4-(tert-butyl)benzamide] |
| 3600 pM | Nc1nc(Nc2ccc(N3CCOCC3)cc2)nc(-c2cccc(NC(=O)c3cc4c(s3)CCC4)c2CO)n1 [Example 175, N-(3-{4-Amino-6-[(4-morpholinophenyl)amino]-1,3,5-triazin-2-yl}-2-(hydroxymethyl)phe-nyl)-5,6-dihydro-4H-cyclopenta[b]thiophene-2-carboxamide] |
| 900 pM | Nc1nc(Nc2cnn(CCO)c2)nc(-c2cccc(N3CCc4cc(C5CC5)cc(F)c4C3=O)c2CO)n1 [Example 179, 2-[3-(4-Amino-6-{[1-(2-hydroxyethyl)-1H-py-razol-4-yl]amino}-1,3,5-triazin-2-yl)-2-(hy-droxymethyl)phenyl]-6-cyclopropyl-8-fluoro-3,4-dihydroisoquino-lin-1(1H)-one] |
| 3600 pM | Nc1nc(Nc2ccc(O)cc2)nc(-c2cccc(N3CCc4cc(C5CC5)cc(F)c4C3=O)c2CO)n1 [Example 182, 2-(3-{4-Amino-6-[(4-hy-droxyphenyl)amino]-1,3,5-triazin-2-yl}-2-(hydroxymethyl)phenyl)-6-cyclopropyl-8-fluoro-3,4-dihydro-isoquinolin-1(2H)-one] |
